The values below come from paper PMC10477861, “Efficient Mining of Anticancer Peptides from Gut Metagenome” (Advanced Science, 2023).

What all share (details): 25 µM pACP, 24 h, maintenance medium 1% FBS, ratio of viability to vehicle (PBS), at least three technical repetitions
The subject of one test is SK-BR-3. Kind of test: MTT primary screening of anticancer activity, SK-BR-3. Format: cell-based. The procedure, abridged: (§1)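 Each candidate peptide is tested […] at 25 µM for 24 h on subconfluent (60%) cells kept in low-serum (1% FBS) medium. Viability is quantified with an MTT kit.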
A further test deals with BT474. Kind of test: MTT primary screening of anticancer activity, BT474. The class given is cell-based. In short, it runs like this:
as §1

For a further test, the system named is MDA-MB-468. The test is described as follows: MTT primary screening of anticancer activity, MDA-MB-468. Format: cell-based. In short, it runs like this:
as §1

For the next test, the system named is Hela. The test is described as follows: MTT primary screening of anticancer activity, Hela. The class given is cell-based, Human. In short, it runs like this:
as §1

Another test deals with MCF7. Kind of test: MTT primary screening of anticancer activity, MCF7. The class given is cell-based. In short, it runs like this:
as §1

A further test deals with Caco2. The test is described as follows: MTT primary screening of anticancer activity, Caco2. The class given is cell-based, Human. In short, it runs like this: as §1
The next test deals with HCT116. The test is described as follows: MTT primary screening of anticancer activity, HCT116. Format: cell-based, Human. The procedure, abridged: as §1
The test system of another test is MDA-MB-231. Kind of test: MTT primary screening of anticancer activity, MDA-MB-231. The class given is cell-based. The procedure, abridged: as §1
The next test relates to B16. The test is described as follows: MTT primary screening of anticancer activity, B16. The class given is cell-based, Mouse. In short, it runs like this:
as §1

For a further test, the system named is HT29. The test is described as follows: MTT primary screening of anticancer activity, HT29. Format: cell-based, Human. In short, it runs like this: as §1
Another test concerns MDA-MB-453. The test is described as follows: MTT primary screening of anticancer activity, MDA-MB-453. The class given is cell-based. In short, it runs like this:
as §1

Another test deals with T47D. The test is described as follows: MTT primary screening of anticancer activity, T47D. Format: cell-based. The procedure, abridged: as §1
The test system of the next test is CT26. The test is described as follows: MTT primary screening of anticancer activity, CT26. The class given is cell-based, Murine. In short, it runs like this: as §1
A further test has as its system LCC. Kind of test: MTT primary screening of anticancer activity, LCC. Format: cell-based. The procedure, abridged: as §1
The next test concerns MDA-MB-436. The test is described as follows: MTT primary screening of anticancer activity, MDA-MB-436. Format: cell-based. In short, it runs like this: as §1
The test system of the next test is EFM192A. Kind of test: MTT primary screening of anticancer activity, EFM192A. The class given is cell-based. The procedure, abridged: as §1

With “KGVRGKICKGKRCKQISNSGCDRQEIQEKQENRYRKEKQNKG [pACP886]”, the “Survival rate of cancer cells in primary screening” value (from here on “Survival rate of cancer cells”) is 1.00 in the test with SK-BR-3; 1.00 in the test with BT474; 1.00 in the test with MDA-MB-468; 0.73 in the test on Hela; 1.00 in the test on MCF7; 1.00 with Caco2. Also, the “Survival rate of cancer cells” value in the test with HCT116 came out at 1.00; in the test on MDA-MB-231 it was 1.00; with B16, 0.78; with HT29 it was 1.00; in the test on MDA-MB-453 it was 1.00; in the test with T47D, 0.69. Also, the “Survival rate of cancer cells” value in the test on CT26, in the test with LCC, with MDA-MB-436 and with EFM192A was 1.00 in each case.

In the case of “KSLQMVLSFVIIFADKKKTLATLIVAKKKKGW [pACP1096]”, the “Survival rate of cancer cells” value in the test on SK-BR-3, in the test on BT474, with MDA-MB-468, in the test with Hela, with MCF7 and in the test on Caco2 was 1.00 each time. Besides, the “Survival rate of cancer cells” value in the test on HCT116 came to 1.00; with MDA-MB-231 it was 1.00; in the test on B16, 1.00; in the test on HT29 it was 0.71; in the test on MDA-MB-453, 1.00; in the test on T47D, 1.00. Also, the “Survival rate of cancer cells” value is given as 1.00 in the test with CT26, 1.00 in the test on LCC, 0.69 in the test with MDA-MB-436 and 1.00 in the test with EFM192A.

In the case of “LARPDAAPKKQLRRPLRFRQPEWRRISKIHHIPRRFRRA [pACP1156]”, the “Survival rate of cancer cells” value in the test on SK-BR-3, with BT474, in the test on MDA-MB-468, in the test on Hela, in the test with MCF7 and with Caco2 was 1.00 in each case. The “Survival rate of cancer cells” value in the test with HCT116 is recorded as 1.00; with MDA-MB-231, 1.00; in the test on B16, 0.78; in the test on HT29, 1.00; with MDA-MB-453, 1.00; with T47D, 0.74. The “Survival rate of cancer cells” value came out at 1.00 in the test on CT26, 1.00 in the test with LCC, 0.74 with MDA-MB-436 and 1.00 in the test with EFM192A.

As to “LLSDFRQYRTKIVRQMRRQIFRQMKQKAE [pACP1210]”, the “Survival rate of cancer cells” value in the test on SK-BR-3 stood at 1.00; with BT474, 1.00; with MDA-MB-468, 1.00; in the test on Hela, 1.00; in the test with MCF7, 0.79; with Caco2, 1.00. Further, the “Survival rate of cancer cells” value is 1.00 in the test with HCT116; 1.00 with MDA-MB-231; 0.76 in the test with B16; 1.00 in the test on HT29; 1.00 in the test with MDA-MB-453; 0.65 in the test with T47D. Besides, the “Survival rate of cancer cells” value with CT26, in the test on LCC, in the test with MDA-MB-436 and in the test on EFM192A was 1.00 in each case.

For the sequence NFWLSTLTGHGFCAVVSAARAGS [pACP1292], the “Survival rate of cancer cells” value in the test on SK-BR-3 was 1.00; with BT474, 1.00; in the test on MDA-MB-468, 1.00; in the test on Hela it was 1.00; in the test with MCF7, 0.79; with Caco2, 1.00. Besides, the “Survival rate of cancer cells” value in the test on HCT116 was determined as 1.00; in the test on MDA-MB-231, 1.00; in the test with B16 it was 1.00; in the test on HT29 it was 1.00; with MDA-MB-453, 1.00; in the test with T47D, 0.76. The “Survival rate of cancer cells” value in the test on CT26 came out at 1.00; in the test on LCC, 1.00; in the test on MDA-MB-436, 0.74; with EFM192A, 0.40.

On to “NLTPPSRRATSPIFCVAKHRGGVCECPTIPQGIGEGVKGHSPFEVEG [pACP1349]”, for which the “Survival rate of cancer cells” value with SK-BR-3, in the test on BT474, in the test with MDA-MB-468, in the test on Hela, with MCF7 and in the test with Caco2 was 1.00 throughout. The “Survival rate of cancer cells” value in the test with HCT116 is given as 1.00; with MDA-MB-231, 1.00; in the test with B16, 0.66; with HT29 it was 1.00; in the test with MDA-MB-453, 1.00; in the test on T47D, 0.62. The “Survival rate of cancer cells” value in the test with CT26, in the test on LCC, in the test on MDA-MB-436 and in the test with EFM192A was 1.00 each time.

Take “NQRKRTACDRRRSICDERIAAGICKRNFRCKKYLKINGTIGLSIRLGKLG [pACP1381]”: the “Survival rate of cancer cells” value was 1.00 with SK-BR-3; 1.00 in the test with BT474; 1.00 with MDA-MB-468; 1.00 in the test with Hela; 1.00 with MCF7; 0.69 in the test on Caco2. In addition, the “Survival rate of cancer cells” value was determined as 1.00 in the test with HCT116; 1.00 with MDA-MB-231; 0.76 with B16; 0.69 in the test with HT29; 1.00 in the test on MDA-MB-453; 1.00 in the test with T47D. The “Survival rate of cancer cells” value with CT26, with LCC, in the test on MDA-MB-436 and in the test with EFM192A was 1.00 throughout.

Regarding “NSFCRQTALCSVALGQYRTKIVRQMRRQIFRQMKQKAE [pACP1403]”, the “Survival rate of cancer cells” value was 1.00 with SK-BR-3; 1.00 in the test on BT474; 0.73 in the test with MDA-MB-468; 1.00 in the test on Hela; 1.00 in the test with MCF7; 1.00 in the test with Caco2. For the same sequence, the “Survival rate of cancer cells” value in the test with HCT116 is on record as 1.00; in the test with MDA-MB-231, 1.00; in the test on B16, 1.00; in the test on HT29, 1.00; in the test on MDA-MB-453, 1.00; in the test with T47D, 0.71. The “Survival rate of cancer cells” value in the test with CT26, in the test on LCC, in the test with MDA-MB-436 and with EFM192A was 1.00 in each case.
